Laboratory results from publication PMC6300691, “Enhancement of Heat Stability and Kinetic Parameters of the Maize Endosperm ADP-Glucose Pyrophosphorylase by Mutagenesis of Amino Acids in the Small Subunit With High B Factors” (Frontiers in Plant Science, 2018).

Columns and labels:
Assay type in all cases: biochemical
K403L = biological target: T1, K403L (Zea mays, UniProt P55241+Q947C0, K403L); assay: Activation constant from initial rates with varied 3-PGA (0-1 mM) at 2 mM ATP and 2 mM G-1-P, pH 7.4, 15 mM MgCl2, fitted to V = Vmin + Vmax*X/(Ka + X).
T1 construct: BT2 variant with wild type SH2, E. coli, purified
T1 sequence (Q947C0 1-475 K403L): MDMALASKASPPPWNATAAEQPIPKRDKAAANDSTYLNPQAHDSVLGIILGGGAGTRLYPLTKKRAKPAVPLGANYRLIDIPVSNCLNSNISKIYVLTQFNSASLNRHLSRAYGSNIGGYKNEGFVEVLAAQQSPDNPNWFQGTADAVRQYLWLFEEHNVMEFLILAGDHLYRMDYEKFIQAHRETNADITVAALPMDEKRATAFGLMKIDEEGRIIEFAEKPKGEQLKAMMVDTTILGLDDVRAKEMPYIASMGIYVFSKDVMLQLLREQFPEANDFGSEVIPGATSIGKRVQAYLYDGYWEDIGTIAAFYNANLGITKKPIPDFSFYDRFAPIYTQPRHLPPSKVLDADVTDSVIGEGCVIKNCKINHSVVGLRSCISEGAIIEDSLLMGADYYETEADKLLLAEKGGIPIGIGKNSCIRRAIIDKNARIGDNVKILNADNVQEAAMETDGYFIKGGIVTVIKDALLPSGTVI
T1 sequence (P55241 46-516): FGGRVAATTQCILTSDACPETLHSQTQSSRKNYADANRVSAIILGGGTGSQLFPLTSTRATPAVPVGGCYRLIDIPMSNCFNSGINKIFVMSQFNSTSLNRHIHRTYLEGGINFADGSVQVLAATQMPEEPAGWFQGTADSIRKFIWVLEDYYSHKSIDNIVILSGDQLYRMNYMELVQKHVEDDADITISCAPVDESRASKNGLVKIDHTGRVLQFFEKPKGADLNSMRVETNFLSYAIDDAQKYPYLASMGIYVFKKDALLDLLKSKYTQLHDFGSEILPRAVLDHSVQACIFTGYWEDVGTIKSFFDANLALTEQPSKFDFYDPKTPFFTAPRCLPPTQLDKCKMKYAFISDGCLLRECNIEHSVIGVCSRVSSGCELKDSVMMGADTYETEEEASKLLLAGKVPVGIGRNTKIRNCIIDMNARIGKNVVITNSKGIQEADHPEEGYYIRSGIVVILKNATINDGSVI
Description: (§1) All reactions were developed as above.

R331K = biological target: T2, R331K (Zea mays, UniProt P55241+Q947C0, R331K); assay: as above
T2 construct: BT2 variant with wild type SH2, E. coli, purified
T2 sequence (Q947C0 1-475 R331K): as the sequence (Q947C0 1-475 K403L) above, with R331K, L403K counted along it
T2 sequence (P55241 46-516): as the sequence (P55241 46-516) above
Description: as §1

E123V = biological target: T3, E123V (Zea mays, UniProt P55241+Q947C0, E123V); assay: as above
T3 construct: BT2 variant with wild type SH2, E. coli, purified
T3 sequence (Q947C0 entry or part of it E123V): as the sequence (Q947C0 1-475 K403L) above, with E123V, L403K counted along it
T3 sequence (P55241 46-516): as the sequence (P55241 46-516) above
Description: as §1

K403E = biological target: T4, K403E (Zea mays, UniProt P55241+Q947C0, K403E); assay: as above
T4 construct: BT2 variant with wild type SH2, E. coli, purified
T4 sequence (Q947C0 1-475 K403E): as the sequence (Q947C0 1-475 K403L) above, with L403E counted along it
T4 sequence (P55241 46-516): as the sequence (P55241 46-516) above
Description: as §1

[1] = biological target: T5, E123G, R331K, K402R, L404H (Zea mays, UniProt P55241+Q947C0, E123G/R331K/K402R/L404H); assay: as above
T5 construct: BT2 quadruple variant with wild type SH2, E. coli, purified
T5 sequence (Q947C0 1-475 E123G/R331K/K402R/L404H): as the sequence (Q947C0 1-475 K403L) above, with E123G, R331K, K402R, L403K, L404H counted along it
T5 sequence (P55241 46-516, stated change not applied): as the sequence (P55241 46-516) above
Description: as §1

D242H = biological target: T6, D242H (Zea mays, UniProt P55241+Q947C0, D242H); assay: as above
T6 construct: BT2 variant with wild type SH2, E. coli, purified
T6 sequence (Q947C0 1-475 D242H): as the sequence (Q947C0 1-475 K403L) above, with D242H, L403K counted along it
T6 sequence (P55241 46-516): as the sequence (P55241 46-516) above
Description: as §1

K402R = biological target: T7, K402R (Zea mays, UniProt P55241+Q947C0, K402R); assay: as above
T7 construct: BT2 variant with wild type SH2, E. coli, purified
T7 sequence (Q947C0 1-475 K402R): as the sequence (Q947C0 1-475 K403L) above, with K402R, L403K counted along it
T7 sequence (P55241 46-516): as the sequence (P55241 46-516) above
Description: as §1

SH2-ISM = biological target: T8, SH2-ISM (Zea mays, UniProt P55241+Q947C0, Q96G/D161G/A443R); assay: as above
T8 construct: SH2-ISM with wild type BT2 (SH2-ISM/BT2-WT), E. coli, purified
T8 sequence (Q947C0 1-475): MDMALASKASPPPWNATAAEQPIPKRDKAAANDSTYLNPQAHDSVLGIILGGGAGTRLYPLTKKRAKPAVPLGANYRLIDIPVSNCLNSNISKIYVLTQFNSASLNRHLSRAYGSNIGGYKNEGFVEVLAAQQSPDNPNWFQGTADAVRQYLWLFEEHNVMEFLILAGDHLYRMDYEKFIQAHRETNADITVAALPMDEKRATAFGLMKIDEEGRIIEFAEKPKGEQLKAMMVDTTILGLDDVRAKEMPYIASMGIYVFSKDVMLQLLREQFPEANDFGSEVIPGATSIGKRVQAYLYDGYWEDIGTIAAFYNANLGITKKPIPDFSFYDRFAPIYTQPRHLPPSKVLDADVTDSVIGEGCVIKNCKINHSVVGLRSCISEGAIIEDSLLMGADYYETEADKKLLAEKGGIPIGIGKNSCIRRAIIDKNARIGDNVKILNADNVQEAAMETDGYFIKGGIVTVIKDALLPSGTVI
T8 sequence (P55241 46-516 Q96G/D161G/A443R): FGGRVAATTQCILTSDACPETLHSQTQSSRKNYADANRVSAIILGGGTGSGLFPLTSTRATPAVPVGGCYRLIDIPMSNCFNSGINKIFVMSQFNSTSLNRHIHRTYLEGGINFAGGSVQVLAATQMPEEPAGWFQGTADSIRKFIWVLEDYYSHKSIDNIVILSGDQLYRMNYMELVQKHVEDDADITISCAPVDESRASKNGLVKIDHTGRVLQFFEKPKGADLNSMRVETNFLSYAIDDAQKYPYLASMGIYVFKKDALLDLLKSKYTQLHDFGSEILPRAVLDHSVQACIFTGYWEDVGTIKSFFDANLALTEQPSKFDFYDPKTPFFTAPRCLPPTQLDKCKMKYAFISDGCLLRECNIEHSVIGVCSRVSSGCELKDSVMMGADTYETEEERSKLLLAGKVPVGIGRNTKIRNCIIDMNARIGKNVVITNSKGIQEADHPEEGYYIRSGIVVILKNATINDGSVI
Description: as §1

E123G = biological target: T9, E123G (Zea mays, UniProt P55241+Q947C0, E123G); assay: as above
T9 construct: BT2 variant with wild type SH2, E. coli, purified
T9 sequence (P55241 46-516): as the sequence (P55241 46-516) above
T9 sequence (Q947C0 entry or part of it E123G): as the sequence (Q947C0 1-475 K403L) above, with E123G, L403K counted along it
Description: as §1

E123Q = biological target: T10, E123Q (Zea mays, UniProt P55241+Q947C0, E123Q); assay: as above
T10 construct: BT2 variant with wild type SH2, E. coli, purified
T10 sequence (Q947C0 1-475 E123Q): as the sequence (Q947C0 1-475 K403L) above, with E123Q, L403K counted along it
T10 sequence (P55241 46-516): as the sequence (P55241 46-516) above
Description: as §1

R331P = biological target: T11, R331P (Zea mays, UniProt P55241+Q947C0, R331P); assay: as above
T11 construct: BT2 variant with wild type SH2, E. coli, purified
T11 sequence (Q947C0 1-475 R331P): as the sequence (Q947C0 1-475 K403L) above, with R331P, L403K counted along it
T11 sequence (P55241 46-516): as the sequence (P55241 46-516) above
Description: as §1

E123G, R331K = biological target: T12, E123G, R331K (Zea mays, UniProt P55241+Q947C0, E123G/R331K); assay: as above
T12 construct: BT2 variant with wild type SH2, E. coli, purified
T12 sequence (Q947C0 1-475 E123G/R331K): as the sequence (Q947C0 1-475 K403L) above, with E123G, R331K, L403K counted along it
T12 sequence (P55241 46-516): as the sequence (P55241 46-516) above
Description: as §1

E123G, R331K, L404H = biological target: T13, E123G, R331K, L404H (Zea mays, UniProt P55241+Q947C0, E123G/R331K/L404H); assay: as above
T13 construct: BT2 variant with wild type SH2, E. coli, purified
T13 sequence (Q947C0 1-475 E123G/R331K/L404H): as the sequence (Q947C0 1-475 K403L) above, with E123G, R331K, L403K, L404H counted along it
T13 sequence (P55241 46-516, stated change not applied): as the sequence (P55241 46-516) above
Description: as §1

SH2-E = biological target: T14, SH2-E (Zea mays, UniProt P55241+Q947C0, N131R/T142F/A160T/Q261S/A396S/V416I/C424V/S444A); assay: Pi inhibition study without 3-PGA, ATP varied (0.1-3 mM) at fixed Pi levels (10-30 mM) and sub-saturating G-1-P (1 mM), fit to mixed-type inhibition equations.; details: read-out: Km (mM), varied substrate ATP, Pi inhibition in the absence of 3-PGA
T14 construct: SH2-E with wild type BT2 (SH2-E/BT2-WT), E. coli, purified
T14 sequence (Q947C0 1-475): T8 sequence (Q947C0 1-475)
T14 sequence (P55241 46-516 N131R/T142F/A160T/Q261S/A396S/V416I/C424V/S444A): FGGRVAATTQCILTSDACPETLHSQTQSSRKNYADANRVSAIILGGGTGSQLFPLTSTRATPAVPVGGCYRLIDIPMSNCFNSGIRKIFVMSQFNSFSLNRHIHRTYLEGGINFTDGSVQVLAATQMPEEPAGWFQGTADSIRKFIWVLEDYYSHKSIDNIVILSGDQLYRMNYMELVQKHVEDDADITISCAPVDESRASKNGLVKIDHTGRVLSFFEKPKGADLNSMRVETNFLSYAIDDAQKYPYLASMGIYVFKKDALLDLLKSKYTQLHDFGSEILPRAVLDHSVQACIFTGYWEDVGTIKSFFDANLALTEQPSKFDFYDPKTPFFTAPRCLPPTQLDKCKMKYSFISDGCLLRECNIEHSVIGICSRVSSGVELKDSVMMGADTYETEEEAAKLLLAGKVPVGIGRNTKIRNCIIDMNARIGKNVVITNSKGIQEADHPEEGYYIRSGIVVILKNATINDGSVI
Description: Pi inhibition was carried out in both the presence and absence of 3-PGA with the Pi and substrate concentrations listed below.
Pi inhibition patterns in the presence and absence of 3PGA were also determined. Pi inhibition patterns were obtained by varying one substrate at several fixed concentrations of Pi, while holding the co-substrate at constant sub-saturating levels.

SMILES: O=C(O)[C@H](O)COP(=O)(O)O [3-PGA, 3-phosphoglycerate (3-phosphoglyceric acid)]
- 3-PGA Ka (activation constant) (K403L): 0.41 ± 0.049
- 3-PGA Ka (activation constant) (R331K): 0.07 ± 0.008
- 3-PGA Ka (activation constant) (E123V): 0.10 ± 0.036
- 3-PGA Ka (activation constant) (K403E): 0.14 ± 0.015
- 3-PGA Ka (activation constant) [1]: 0.11 ± 0.017 +
- 3-PGA Ka (activation constant) (D242H): 0.077 ± 0.0077
- 3-PGA Ka (activation constant) (K402R): 0.077 ± 0.014
- 3-PGA Ka (activation constant) (SH2-ISM): 0.056 ± 0.008
- 3-PGA Ka (activation constant) (E123G): 0.090 ± 0.023
- 3-PGA Ka (activation constant) (E123Q): 0.12 ± 0.022
- 3-PGA Ka (activation constant) (R331P): 0.094 ± 0.013
- 3-PGA Ka (activation constant) (E123G, R331K): 0.183 ± 0.024
- 3-PGA Ka (activation constant) (E123G, R331K, L404H): 0.059 ± 0.11

SMILES: Nc1ncnc2c1ncn2[C@@H]1O[C@H](COP(=O)(O)OP(=O)(O)OP(=O)(O)O)[C@@H](O)[C@H]1O [ATP, adenosine 5'-triphosphate]
- Km (SH2-E): 0.97 ± 0.081 mM
